Measured values taken from article PMC9873984, “Membrane cholesterol regulates inhibition and substrate transport by the glycine transporter, GlyT2” (Life Science Alliance, 2023).
Substitutions are numbered along the chain they refer to.

Experiments:
GlyT2 F515W mutant = target: T1, GlyT2 F515W mutant (Homo sapiens, UniProt Q9Y345, F515W); assay: Inhibitor washout time course (reversibility); assay type: cell-based; parameters: expressed in transfected cells; host or cells: Xenopus laevis oocytes injected with mutant RNA (pOTV vector); details: for Recovery at 30 Min / Half-life (transport current recovery): washout after 4 min IC50 concentration
T1 sequence (Q9Y345 1-797 F515W): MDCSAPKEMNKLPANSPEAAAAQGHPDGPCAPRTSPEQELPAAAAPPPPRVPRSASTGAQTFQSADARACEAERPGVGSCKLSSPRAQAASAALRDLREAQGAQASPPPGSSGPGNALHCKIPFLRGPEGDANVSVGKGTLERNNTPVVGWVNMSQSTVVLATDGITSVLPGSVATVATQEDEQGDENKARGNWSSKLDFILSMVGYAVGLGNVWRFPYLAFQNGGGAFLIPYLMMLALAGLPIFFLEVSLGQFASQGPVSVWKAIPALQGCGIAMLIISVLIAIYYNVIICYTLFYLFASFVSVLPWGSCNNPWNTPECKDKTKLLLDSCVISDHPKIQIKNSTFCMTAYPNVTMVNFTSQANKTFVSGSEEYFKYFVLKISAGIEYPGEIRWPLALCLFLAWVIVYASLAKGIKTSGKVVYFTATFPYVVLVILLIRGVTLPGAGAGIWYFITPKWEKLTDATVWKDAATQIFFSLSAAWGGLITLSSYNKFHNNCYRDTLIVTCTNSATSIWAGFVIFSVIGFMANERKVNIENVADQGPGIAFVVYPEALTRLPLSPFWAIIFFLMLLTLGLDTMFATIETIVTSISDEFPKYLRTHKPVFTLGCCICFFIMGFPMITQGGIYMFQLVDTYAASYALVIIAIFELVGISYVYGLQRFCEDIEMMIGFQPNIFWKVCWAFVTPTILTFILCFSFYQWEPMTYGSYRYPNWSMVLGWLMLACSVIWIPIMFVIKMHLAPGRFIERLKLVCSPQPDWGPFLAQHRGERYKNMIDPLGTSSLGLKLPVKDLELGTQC
Experimental: (§1) Reversibility of GlyT2 inhibitors was determined by applying an EC50 concentration of glycine followed by co-application of the inhibitor at an IC50 concentration once a stable current had been achieved. Inhibitors were applied for 4 min as this was sufficient time to produce substantial inhibition for each compound and allowed for their direct comparison. At the conclusion of 4 min (time 0), ND96 buffer was perfused through the recording chamber to wash the oocyte. […] Transport currents were normalized to glycine currents in the absence of inhibitor and converted to % recovery values via Y=It−It=0/Imax−It=0, where Y is % recovery, I is current in nA, Imax is the maximal current produced by the glycine EC50, and t is time in minutes. Washout kinetics were then determined by fitting % recovery values to the first-order rate equation: Y=(Y0−Plateau).e^(−Kt)+Plateau, where Y is the % recovery, Y0 is the point, which crosses the Y-axis (constrained to 0) and increases to the plateau (constrained to between 0 and 100), K is the rate constant (1/t), and t is time in minutes. […] Because of the slowly […] nature of the inhibitors, washout time courses involving cyclodextrin treatment could not be performed on the same cell. […] As these experiments could not occur on the same cell, differences in half-life and maximal recovery were analysed via an unpaired two-tailed t test.

GlyT2 Y430F mutant = target: T2, GlyT2 Y430F mutant (Homo sapiens, UniProt Q9Y345, Y430F); assay: Inhibitor washout time course (reversibility); assay type: cell-based; parameters: expressed in transfected cells; host or cells: Xenopus laevis oocytes injected with mutant RNA (pOTV vector)
T2 sequence (Q9Y345 1-797 Y430F): T1 sequence (Q9Y345 1-797 F515W) with Y430F, W515F
Experimental: as §1

[1] = washout after 4 min IC50 concentration

Row | Increase of recovery at 30 min compared to WT (GlyT2 F515W mutant; F515W vs WT) | Recovery at 30 Min (GlyT2 F515W mutant; F515W) | Recovery at 30 Min (GlyT2 Y430F mutant; [1]) | Increase in recovery of current 30 min after application, vs WT (GlyT2 F515W mutant; F515W) | Half-life (transport current recovery) (GlyT2 F515W mutant; F515W) | Reduction in recovery of current 30 min after application, vs WT (GlyT2 Y430F mutant) | Increase in recovery after 30 min, vs WT (GlyT2 Y430F mutant) | Half-life (transport current recovery) (GlyT2 Y430F mutant; [1]) | SMILES
1 | 1.3 fold | 60.1% | 24.7% |  |  |  |  |  | CCCCCCCC/C=C\CCCCCCCC(=O)O[C@H](CC(=O)[O-])C[N+](C)(C)C [Oleoyl-L-Carnitine, oleoyl-L-carnitine]
2 |  | 70.1 ± 1.9 % | 26.6 ± 2.3 % | 19.0% | 2.0 ± 0.2 min | 24.5% |  |  | CCCCCCCC/C=C\CCCCCCCC(=O)N[C@@H](CC(C)C)C(=O)O [Oleoyl-L-Leucine, oleoyl-L-leucine]
3 |  | 57.8 ± 4.1% | 68.5 ± 2.1 % |  |  |  | 13.4% |  | CCCCCCCC/C=C\CCCCCCCC(=O)N[C@@H](CCCCN)C(=O)O [Oleoyl-L-Lysine, oleoyl-L-lysine]
4 |  | No Recovery | No Recovery |  | No Recovery |  |  | No Recovery | CCCCCCCC/C=C\CCCCCCCC(=O)N[C@@H](Cc1c[nH]c2ccccc12)C(=O)O [Oleoyl-L-Tryptophan, oleoyl-L-tryptophan]
